Results on 6 compounds are retold here after patent US20080255111A1, “Tissue Factor Production Inhibitor” (SANKYO COMPANY LIMITED, priority 2004, published 2008).

In assay [1] the test system is tissue factor mRNA in kidneys of LPS-dosed mice. The assay can be described thus: Assay of tissue factor mRNA using LPS-dosed mouse (kidney). The format is in vivo. The following applies: male C57BL/6J mice, 10 mg/kg oral once a day for 7 days; LPS 4 mg/kg i.p., kidneys 6 hours later; PG/Tween only = 100. The protocol: Test compounds were dissolved in a solution comprising a 4:1 mixture of propylene glycol (Wako Pure Chemical Industries) and Tween 80 (Kao) (hereinafter PG/Tween) followed by oral administration by gavage for 7 days at 10 mg/kg once a day in the evening to male C57BL/6J mice (Charles River). LPS was administered intraperitoneally at 4 mg/kg at 9:00 AM on the day following the 7th day of administration of PG/Tween, after which the animals were laparotomized under ether anesthesia 6 hours later to excise the kidneys. RNA was extracted from the kidneys using Trizol reagent (Invitrogen). After carrying out a reverse transcription reaction on the resulting RNA using the First-Strand cDNA Synthesis Kit, the expressed amounts of tissue factor mRNA and cyclophilin mRNA were measured in the same manner as the aforementioned Test Example 1. The expressed amounts of tissue factor mRNA for the test compounds when administered at a concentration of 10 mg/kg based on a value of 100 for the expressed amount of tissue factor mRNA in a case of administration of PG/Tween only are shown in Table 8.

The subject of assay [2] is tissue factor mRNA in LPS-stimulated mouse peritoneal macrophages. The assay can be described thus: Assay of mouse peritoneal macrophage tissue factor mRNA. The format is cell-based. The following applies: 18 h, then LPS 100 ng/ml for 6 h, relative to cyclophilin mRNA, DMSO treatment = 100, read-out: Expressed Amount of Tissue Factor mRNA; for mrna remaining at 1 µM: test compound 1 μM. The procedure:
3 ml of thioglycolate (Sigma Chemical) were administered into the abdominal cavity of male C57BL/6J mice (Charles River) followed 4 days later by intraperitoneal administration of 10 ml of phosphate-buffered saline (hereinafter PBS) containing heparin (Hishiyama Pharmaceutical) at a concentration of 5 U/ml and recovery of intraperitoneal macrophages using a syringe. After centrifuging the recovered macrophages at 1000 rpm and 4° C. for 5 minutes, the supernatant was discarded followed by suspending in RPMI 1640 medium (Gibco Laboratories) containing normal fetal bovine serum (hereinafter FBS) at a concentration of 10%. The macrophages were adjusted to a concentration of 4×10^6 cells/ml, disseminated in 1 ml aliquots in a 12-well plate, and cultured for 3 hours at 37° C. using a CO2 incubator. Subsequently, the cells were washed with PBS, and the medium was replaced with RPMI medium containing lipoprotein-deficient serum (hereinafter LPDS) (Sigma Chemical) at a concentration of 5%. Test compounds dissolved in dimethylsulfoxide (DMSO) at a concentration of 1 μM were added to make a final DMSO concentration of 0.1%, and after warming for 18 hours at 37° C., lipopolysaccharide (hereinafter LPS) (Sigma Chemical) was added to make a concentration of 100 ng/ml. The cells were recovered 6 hours later, RNA was extracted using the Rneasy Mini Kit (Qiagen), and after carrying out a reverse transcription reaction using the First-Strand cDNA Synthesis Kit (Amersham Biosciences), the expressed amounts of tissue factor mRNA and cyclophylin mRNA were measured by quantitative RT-PCR (TaqMan, Applied Biosystems 7700 Sequence Detector).
Quantitative RT-PCR for tissue factor was carried out using the aforementioned TF-1 and TF-2 as primers and TF-P as probes, while quantitative PCR for cyclophilin was carried out using the aforementioned Cyl-1 and Cyl-2 as primers and Cyl-P as probes. Both were carried out by warming for 2 minutes at 50° C. and then for 10 minutes at 95° C., followed by 40 warming cycles consisting of warming for 15 seconds at 95° C. and then for 1 minute at 60° C. The expressed amount of tissue factor mRNA was calculated as a relative value of the expressed amount of cyclophilin mRNA. The expressed amounts of tissue factor mRNA resulting from the test compounds at a concentration of 1 μM or 10 μM based on a value of 100 for the expressed amount of tissue factor mRNA in a case of treatment with DMSO at a concentration of […] are shown in Table 7.

On to `O=C(O)Cc1cccc(OCCCN(Cc2cccc(C(F)(F)F)c2Cl)CC(c2ccccc2)c2ccccc2)c1` [Compound C, 2-(3-{3-[[2-Chloro-3-(trifluoromethyl)benzyl](2,2-diphenylethyl)amino]propoxy}-phenyl)acetic acid, reference compound], for which, in assay [1], the “Expressed Amount of Tissue Factor mRNA” value stood at 54.1. Further, the mrna remaining at 1 µM in assay [2] is 68.8%.

Take `COc1cc2nc(Cc3ccccc3)n(-c3ccc(C(O)(C(F)(F)F)C(F)(F)F)cc3)c(=O)c2cc1OC` [Compound D, 2-Benzyl-6,7-dimethoxy-3-[4-[2,2,2-trifluoro-1-hydroxy-1-(trifluoromethyl)ethyl]phenyl]-4(3H)-quinazolinone]: in assay [1], the “Expressed Amount of Tissue Factor mRNA” value came out at 63.5. Besides, the mrna remaining at 1 µM in assay [2] worked out at 39%.

As to `CC(=O)N(C)c1ccc(OCc2cc3ccc(F)cc3n2C(=O)OC(C)(C)C)cc1` [Reference Example 3, tert-Butyl 2-({4-[acetyl(methyl)amino]phenoxy}methyl)-6-fluoro-1H-indole-1-carboxylate], in assay [2], the mrna remaining at 1 µM was 67.9%.

Consider `Cc1cc(C(O)(C(F)(F)F)C(F)(F)F)ccc1-n1c(Cc2cccnc2)nc2ccc(-n3cncn3)cc2c1=O` [Compound I, 3-{2-Methyl-4-[2,2,2-trifluoro-1-hydroxy-1-(trifluoromethyl)ethyl]phenyl}-2-(3-pyridylmethyl)-6-(1H-1,2,4-triazol-1-yl)-4(3H)-quinazolinone], for which the mrna remaining at 1 µM in assay [2] was determined as 48.6%.

For the compound `CN(C)c1cc(CC(=O)O)ccc1-c1ccc(OCc2ccc(C(F)(F)F)c(O)c2C(=O)OC(C)(C)C)cc1` [Reference Example 31, [4′-{[2-(tert-Butoxycarbonyl)-3-hydroxy-4-(trifluoromethyl)benzyl]oxy}-2-(dimethylamino)-1,1′-biphenyl-4-yl]acetic acid], the mrna remaining at 10 µM in assay [2] (test compound 10 μM) was 33.7%.

As for `CN(c1ccc(OCc2ccc(C(F)(F)F)c(O)c2C(=O)OC(C)(C)C)cc1)S(C)(=O)=O` [Reference Example 6, tert-Butyl 2-hydroxy-6-({4-[methyl(methylsulfonyl)amino]phenoxy}methyl)-3-(trifluoromethyl)benzoate], the mrna remaining at 1 µM in assay [2] came out at 62.8%.
